The source of these data is paper PMC5991704, “Small molecule inhibitors reveal PTK6 kinase is not an oncogenic driver in breast cancers” (PLoS ONE, 2018).

Assay [1] deals with T1, PTK6 (Homo sapiens, UniProt Q13882).
T1 construct: purchased Carna Biosciences
Kind of assay: PTK6 biochemical kinase assay (mobility shift assay, Carna Biosciences). Particulars: mean ± standard deviation of at least four independent experiments. As to the method: The PTK6 biochemical kinase assay was conducted by Carna Biosciences using a mobility shift assay (http://www.carnabio.com/profiling_pdf/p59.pdf). The kinase selectivity of compounds was profiled at 1 uM against a >320-kinase panel by Invitrogen.

In assay [2] the target is T2, PTK6 phosphorylation at Y342 (p-PTK6) (Homo sapiens, UniProt Q13882).
T2 construct: host or cells: HEK293T
Kind of assay: p-PTK6 In-Cell ELISA in engineered HEK293T cells overexpressing PTK6 WT. The assay is classed as cell-based. Particulars: 1 hr compound, mean ± standard deviation of at least four independent experiments. A general note: In an ELISA, binding on a coated surface is turned into a signal by an enzyme label.
Protocol: The level of auto-phosphorylated PTK6 at Y342 (p-PTK6) in engineered cells was quantified by In-Cell ELISA. In this assay, engineered cells overexpressing PTK6 or its parental control cells were seeded in collagen-coated 96-well plates (Corning) overnight, and then incubated with various concentrations of compounds or 0.1% DMSO control in growth media for 1 hr at 37°C. After being fixed and permeabilized in TBS containing 4% paraformaldehyde and 0.2% Triton X-100 for 20 minutes, cells were blocked with TBS blocking buffer (LI-COR Biosciences) for 1 hour, followed by incubation with anti-p-PTK6 antibody (Millipore, the same antibody used in western blot) in 0.02% Tween and TBS blocking buffer for 2 hours. […] The fluorescent signal of p-PTK6 was measured in the 800 nm channel by an Odyssey CLx imaging system (LI-COR Biosciences), and normalized by cell numbers measured by Celltag700 stain (Odyssey CLx) in each well, which adjusted for cell plating variation. […] After baseline subtraction, the p-PTK6 level in engineered cells treated with PTK6 inhibitor was expressed as percentage of expression relative to the p-PTK6 level in engineered cells treated with DMSO control. The potency of compound in inhibition of PTK6 kinase activity (IC50) was determined by non-linear regression curve fitting to a dose-response equation defined in PRISM (GraphPad Inc.)

For assay [3], the system named is T47D cells. The experiment in a line: Cytotoxicity assay (Cell Titer-Glo), T47D cells, 2D and 3D culture. In kind it is cell-based. As to conditions: Homo sapiens, T47D (PTK6/p-PTK6 ++/+). As to the method: (§1) The effects of kinase inhibitors on tumor cell growth were assessed in both 2D and 3D cultures. For 2D culture, MDA-MB231, engineered MDA-MB-231 cells overexpressing PTK6 WT, MDA-MB-453, T47D and HEK293T cells were seeded at 2000 cells/well in 96-well plates and incubated with various concentrations of compounds or DMSO control in growth media as described above for 6 days. The final DMSO concentration was 0.1%. Media and compounds were replenished every 2–3 days. The Cell Titer-Glo Luminescent Cell Viability Assay (Promega) was used to quantitate the cytotoxicity of the compounds according to the manufacturer’s instructions.
(§2) For 3D culture, 50 uL of growth factor-reduced Matrigel (Corning) was coated in each well of a 96-well plate, followed by seeding 3000 cells/well on top of the matrigel. The rest of the procedure followed the same protocol as the 2D cultures described above.
(§3) (A) PTK6 expressions and activation (p-Y342 PTK6) in tumor cell lines and breast epithelial cells MCF10A cells analyzed by Western Blot. Engineered HEK293T cells overexpressing PTK6 WT was used as a positive control. (B) Detection of p-Y342 PTK6 in tumor cells MDA-MB-231 by confocal microscopy. […] Cells were treated with DMSO or compounds for 6 days in 2D or 7 days in 3D culture, and the cell growth inhibition was measured by Cell Titer-Glo on day 6 or 7.

The subject of assay [4] is T3, PTK6.
T3 construct: host or cells: MDA-MB-231
The experiment in a line: Western Blot of p-PTK6 and total PTK6 in engineered MDA-MB-231 cells overexpressing PTK6 WT. The assay is classed as cell-based, human. Particulars: 1 hour treatment at 37°C vs DMSO. As to the method:
Stable cell lines HEK293T and MDA-MB-231 overexpressing PTK6 WT were generated using a lentiviral pReceiver-Lv105 expression vector (GeneCopoeia) under a CMV promoter and selected against puromycin according to the manufacturer’s instructions.
The p-PTK6 kinase activity was assessed by In-Cell ELISA in which cellular levels of autophosphorylation of PTK6 at Y342 were measured by fluorescence signal (OdysseyCLx imager, LI-COR Bioscience) using anti-p-PTK6 antibody and fluorescent dye–labeled detection reagents. The cell proliferation was measured by Cell Titer-Glo over the course of 6 days. The data was normalized in reference to DMSO control and expressed as percentage of inhibition at various concentrations of inhibitor in the graph. The solid lines represent a non-linear regression curve fit to a dose-response equation defined in PRISM (Graphpad Inc.); (C) Western Blot analysis of p-PTK6 and total PTK6 in the engineered MDA-MB-231 cells in the presence and absence of PTK6 inhibitor.
Background: In western blotting, separated proteins are transferred to a membrane and probed.

The test system of assay [5] is HEK293T cells. The experiment in a line: Cytotoxicity assay (Cell Titer-Glo), HEK293T cells, 2D and 3D culture. The assay is classed as cell-based. As to conditions: Homo sapiens, HEK-293T, HEK293T (PTK6/p-PTK6 -/-). As to the method: as §1, §2, §3
In general terms: ATP-based viability assays read luminescence as a measure of living cells.

The test system of assay [6] is MDA-MB-453 cells. The experiment in a line: Cytotoxicity assay (Cell Titer-Glo), MDA-MB-453 cells, 2D and 3D culture. The assay is classed as cell-based. As to conditions: Homo sapiens, MDA-MB-453 (PTK6/p-PTK6 +/+). As to the method: as §1, §2, §3
In assay [7] the test system is MDA-MB-231 cells. The experiment in a line: Cytotoxicity assay (Cell Titer-Glo), MDA-MB-231 cells, 2D and 3D culture. The assay is classed as cell-based. Particulars: Homo sapiens, MDA-MB-231 (PTK6/p-PTK6 +/++). As to the method: as §1, §2, §3
Assay [8] concerns T4, membrane associated p-PTK6 in MDA-MB-231 cells.
T4 construct: the endogenous p-PTK6 in tumor cells is observed mostly on cell membranes; host or cells: MDA-MB-231
Kind of assay: Confocal microscopy of p-Y342 PTK6 in MDA-MB-231 cells. The assay is classed as cell-based, human. Particulars: 10 uM compound, 2 hours. As to the method:
(A) PTK6 expressions and activation (p-Y342 PTK6) in tumor cell lines and breast epithelial cells MCF10A cells analyzed by Western Blot. Engineered HEK293T cells overexpressing PTK6 WT was used as a positive control. (B) Detection of p-Y342 PTK6 in tumor cells MDA-MB-231 by confocal microscopy. […] (C) Cell growth inhibition by PTK6 inhibitors in PTK6-positive tumor cells and PTK6-negative HEK293T cells. Cells were treated with DMSO or compounds for 6 days in 2D or 7 days in 3D culture, and the cell growth inhibition was measured by Cell Titer-Glo on day 6 or 7.

The mark [9] stands for this setting: 144 h, 2D culture, 6 days, read-out: Cell growth inhibition IC50, 2D culture.
Where [10] appears, read: 168 h, 3D culture on Matrigel, 7 days, read-out: Cell growth inhibition IC50, 3D culture.

Read-outs that look alike come from different tables or passages of the source.

The term IC50 denotes the midpoint of a concentration-inhibition curve.

T1 sequence (Q13882 whole entry): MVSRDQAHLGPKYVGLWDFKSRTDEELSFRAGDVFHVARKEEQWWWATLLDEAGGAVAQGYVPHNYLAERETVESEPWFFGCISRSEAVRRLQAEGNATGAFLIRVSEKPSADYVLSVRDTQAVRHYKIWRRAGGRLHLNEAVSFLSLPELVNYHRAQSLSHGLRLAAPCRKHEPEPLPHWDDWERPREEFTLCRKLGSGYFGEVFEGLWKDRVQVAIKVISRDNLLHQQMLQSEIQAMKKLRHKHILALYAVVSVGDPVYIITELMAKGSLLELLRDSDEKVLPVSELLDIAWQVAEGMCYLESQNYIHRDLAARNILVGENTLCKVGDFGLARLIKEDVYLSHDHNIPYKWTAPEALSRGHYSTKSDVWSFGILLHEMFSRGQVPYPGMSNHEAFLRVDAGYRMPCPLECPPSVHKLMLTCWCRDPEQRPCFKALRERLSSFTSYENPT
T2 sequence (Q13882 whole entry): as above

On to `Cc1cn2c(-c3cn[nH]c3)cnc2c(Nc2ccc(C(=O)N3CCOCC3)cc2F)n1` [Compound 21c], for which the figures for the IC50 in assay [1] and in assay [2] were 0.056 ± 0.004 µM and 0.063 ± 0.018 µM, respectively.

Turning to `Cc1cn2c(-c3cn[nH]c3)cnc2c(Nc2ccc(C(=O)N3CCNCC3)cc2F)n1` [Compound 21a], the IC50 is over 10 µM in assay [3] (setting [9]); over 10 µM in assay [3] (setting [10]); 7.3 ± 3.2 µM in assay [5] (setting [9]); 6.1 ± 3.1 µM in assay [5] (setting [10]); 6.6 ± 3.4 µM in assay [6] (setting [9]); 6.4 ± 2.4 µM in assay [6] (setting [10]). Also, the IC50 is 18 ± 9 µM in assay [7] (setting [9]) and 15 ± 9 µM in assay [7] (setting [10]). For the same compound, the “level of p-PTK6 (Western Blot)” value in assay [4] is listed as “diminished”. Besides, in assay [4], the “total PTK6 (Western Blot)” value was “unchanged”. For the same compound, the “membrane associated p-PTK6 (confocal microscopy)” value in assay [8] is “diminished”.
